Here are results for 60 compounds from US20100113276A1, “USE OF N2-PHENYLAMIDINES AS HERBICIDES” (BAYER CROPSCIENCE AG, priority 2007, published 2010).

The series can be described thus: log P by HPLC on reversed-phase column (C18), EEC Directive 79/831 Annex V.A8. The format is physicochemical. The settings on record: C18, 40° C.; for log p HCO2H: aqueous formic acid / acetonitrile. As to the method:
The log P data were determined in accordance with the EEC Directive 79/831 Annex V.A8 by HPLC (High Performance Liquid Chromatography) on a reversed-phase column (C18) using the following methods: […]
Calibration was carried out with the help of unbranched alkan-2-ones (consisting of 3 to 13 or 16 carbon atoms) with known logP values (determination of the logP values via the retention times by means of linear interpolation between two subsequent alkanones).

Compound `Cc1cc(Oc2cc(F)cc(Br)c2)c(C)cc1N=CN(C)C` [compound 1] yielded a log p acidic of 2.17 and a log p neutral of 5.11.

Take `CCN(C)C=Nc1cc(C)c(Oc2ccc(Cl)c(C(F)(F)F)c2)cc1C` [compound 34]: the log p acidic is given as 2.38.

Consider `Cc1cc(Oc2ccc(Cl)c(C(F)(F)F)c2)c(C)cc1N=CN1CCCCC1` [compound 36], for which the “log p HCO2H” value was determined as 2.59 and the log p neutral was 6.36.

As to `CCN(C)C=Nc1cc(C)c(Oc2ccc(Cl)c(C(C)(C)C)c2)cc1C` [compound 50], the log p acidic is listed as 2.69 and the log p neutral came out at 5.96.

`CCN(C)C=Nc1cc(C)c(Oc2cccc(-c3cccnc3Cl)c2)cc1C` [compound 130] yielded a log p acidic of 2.05 and a log p neutral of 4.53.

For the compound `CCN(C)C=Nc1cc(C)c(Oc2ccc(C#N)c(C(F)(F)F)c2)cc1C` [compound 226], the log p acidic is on record as 1.68.

Regarding `Cc1cc(Oc2ccc(C#N)c(C(F)(F)F)c2)c(C)cc1N=CN1CCCCC1` [compound 228], the log p acidic is 1.92, the “log p HCO2H” value came out at 2.14 and the log p neutral was determined as 5.35.

On to `CCN(C)C=Nc1cc(C)c(CCc2ccc(C(F)(F)F)cc2)cc1C` [compound 250], for which the “log p HCO2H” value was 2.45.

As to `CCN(C)C=Nc1cc(C)c(C=Cc2ccccc2C)cc1C` [compound 270], the “log p HCO2H” value is on record as 2.21.

As to `CCN(C)C=Nc1cc(C)c(C=Cc2ccc(OC)cc2)cc1C` [compound 286], the “log p HCO2H” value worked out at 2.06.

As for `CCN(C)C=Nc1cc(C)c(Oc2cccc(Oc3ccccc3)c2)cc1C` [compound 290], the log p acidic was 2.51.

`Cc1cc(Oc2cc(F)cc(Br)c2)c(C)cc1N=CN(C)C(C)C` [compound 321] returned a log p acidic of 2.37 and a log p neutral of 6.21.

In turn, `Cc1cc(Oc2cc(Cl)cc(Br)c2)c(C)cc1N=CN(C)C(C)C` [compound 328] gave a log p acidic of 2.70 and a log p neutral of 6.81.

`CCN(C)C=Nc1cc(C)c(CCc2ccccc2F)cc1C` [compound 345]: the “log p HCO2H” value came to 2.45.

As for `CCCN(C)C=Nc1cc(C)c(Oc2ccc(Br)c(C(C)C)c2)cc1C` [compound 356], the log p acidic was 2.93 and the log p neutral is 7.01.

As to `Cc1cc(Oc2ccc(F)c(C(F)(F)F)c2)c(C)cc1N=CN(C)C` [compound 365], the “log p HCO2H” value was 2.37.

In turn, `CCN(C)C=Nc1cc(C)c(Oc2cc(F)cc(C(F)(F)F)c2)cc1C` [compound 371] showed a log p acidic of 2.31 and a log p neutral of 5.54.

`Cc1cc(Oc2cc(F)cc(C(F)(F)F)c2)c(C)cc1N=CN1CCCCC1` [compound 373] returned a log p acidic of 2.29.

Take `CCN(C)C=Nc1cc(Cl)c(Oc2ccc(Cl)c(C(C)(C)C)c2)cc1C` [compound 388]: the “log p HCO2H” value is listed as 3.02 and the log p neutral stood at 6.70.

In turn, `Cc1cc(-c2ccc(Cl)cc2C)c(C)cc1N=CN(C)C` [compound 393] yielded a log p acidic of 2.24 and a log p neutral of 5.62.

For `CCN(C)C=Nc1cc(C)c(-c2ccc(Cl)c(C)c2)cc1C` [compound 398], the log p acidic stood at 2.27 and the log p neutral worked out at 5.59.

The compound `Cc1cc(Oc2ccc(Cl)c(C(C)C)c2)c(C)cc1N=CN(C)C(C)C` [compound 401] yielded a log p neutral of 7.36.

For `Cc1cc(Oc2ccc(Cl)c(C(C)C)c2)c(Cl)cc1N=CN(C)C1CC1` [compound 402], the “log p HCO2H” value turned out to be 2.96 and the log p neutral is given as 6.60.

The compound `CCN(C)C=Nc1cc(C)c(Oc2cc(Cl)cc(C(C)C)n2)cc1C` [compound 407] displayed a log p acidic of 2.18.

As for `Cc1cc(Oc2cccc(C(C)(C)C)c2)c(C)cc1N=CN(C)C(C)C` [compound 440], the log p acidic came out at 2.96 and the “log p HCO2H” value came out at 2.72.

Regarding `Cc1cc(-c2ccc(C(C)(C)C)cc2)c(C)cc1N=CN(C)C` [compound 445], the log p acidic stood at 2.71 and the log p neutral is on record as 5.74.

The compound `CCN(C)C=Nc1cc(C)c(-c2ccc(C(C)(C)C)cc2)cc1C` [compound 446] had a log p acidic of 2.69 and a log p neutral of 6.30.

With `CCN(C)C=Nc1cc(C)c(Oc2cccc(C(C)(CC)OC)c2)cc1C` (stereo not shown) [compound 502], the log p acidic was 2.30.

Consider `CCN(C)C=Nc1cc(C)c(Oc2ccc3ccccc3c2)cc1C` [compound 538], for which the log p acidic was 2.38.

For the compound `CCN(C)C=Nc1cc(C)c(Oc2nc(C(C)C)ns2)cc1C` [compound 547], the log p acidic came to 1.74 and the log p neutral stood at 4.33.

In the case of `CCN(C)C=Nc1cc(C)c(OCc2sc(Cl)nc2Cl)cc1C` [compound 555], the “log p H3PO4” value (0.1% aqueous phosphoric acid / acetonitrile) is reported as 1.99.

For `CCN(C)C=Nc1cc(C)c(Oc2nc(C(C)(C)C)c(Cl)s2)cc1C` [compound 559], the log p acidic is listed as 2.76.

For `Cc1cc(Oc2cc(Cl)cc(C(F)(F)F)c2)c(Cl)cc1N=CN(C)C` [compound 564], the log p acidic came out at 2.51.

With `CCN(C)C=Nc1cc(Cl)c(Oc2cc(Cl)cc(C(F)(F)F)c2)cc1C` [compound 565], the log p acidic turned out to be 2.64.

`CCCN(C)C=Nc1cc(Cl)c(Oc2cc(Cl)cc(C(F)(F)F)c2)cc1C` [compound 566] registered a log p acidic of 2.83.

`Cc1cc(Oc2cc(Cl)cc(C(F)(F)F)c2)c(Cl)cc1N=CN1CCCC1` [compound 567] yielded a log p acidic of 2.66.

`Cc1cc(Oc2cc(Cl)cc(C(F)(F)F)c2)c(Cl)cc1N=CN1CCCCC1` [compound 568] showed a log p acidic of 2.86.

Turning to `CCN(C)C=Nc1cc(Cl)c(Oc2ccc(Cl)c(C(C)C)c2)cc1C` [compound 570], the “log p HCO2H” value was 2.95 and the log p neutral was 6.37.

As for `CCCN(C)C=Nc1cc(Cl)c(Oc2ccc(Cl)c(C(C)C)c2)cc1C` [compound 571], the “log p HCO2H” value is given as 3.03 and the log p neutral amounted to 6.79.

For the compound `Cc1cc(Oc2ccc(Cl)c(C(C)C)c2)c(Cl)cc1N=CN(C)C(C)C` [compound 572], the “log p HCO2H” value is 2.87 and the log p neutral came out at 6.70.

As for `CCC(C)N(C)C=Nc1cc(Cl)c(Oc2ccc(Cl)c(C(C)C)c2)cc1C` (stereo not shown) [compound 573], the log p acidic came out at 2.90, the “log p HCO2H” value is on record as 2.90 and the log p neutral was found to be 7.14.

Regarding `Cc1cc(Oc2ccc(Cl)c(C(C)(C)C)c2)c(Cl)cc1N=CN(C)C1CC1` [compound 577], the “log p HCO2H” value was determined as 3.24 and the log p neutral is on record as 6.94.

Compound `CCCN(C)C=Nc1cc(Cl)c(Oc2ccc(Cl)c(C(C)(C)C)c2)cc1C` [compound 578] gave a log p acidic of 3.06.

Turning to `CCC(C)N(C)C=Nc1cc(Cl)c(Oc2ccc(Cl)c(C(C)(C)C)c2)cc1C` (stereo not shown) [compound 579], the log p acidic turned out to be 3.19, the “log p HCO2H” value is on record as 3.19 and the log p neutral turned out to be 7.36.

On to `CCc1cc(Oc2cc(C)c(N=CN(C)CC)cc2Cl)ccc1Cl` [compound 583], for which the “log p HCO2H” value is reported as 2.78 and the log p neutral was determined as 6.09.

Turning to `CCCN(C)C=Nc1cc(Cl)c(Oc2ccc(Cl)c(CC)c2)cc1C` [compound 584], the “log p HCO2H” value was determined as 2.84 and the log p neutral worked out at 6.54.

`CCc1cc(Oc2cc(C)c(N=CN(C)C3CC3)cc2Cl)ccc1Cl` [compound 585]: the “log p HCO2H” value stood at 2.89 and the log p neutral turned out to be 6.34.

Take `CCc1cc(Oc2cc(C)c(N=CN3CCCCC3)cc2Cl)ccc1Cl` [compound 587]: the “log p HCO2H” value was found to be 2.74 and the log p neutral is on record as 6.73.

Turning to `CCN(C)C=Nc1cc(Cl)c(Oc2ccc(Br)c(C(C)C)c2)cc1C` [compound 589], the “log p HCO2H” value was 2.84 and the log p neutral turned out to be 6.58.

With `CCCN(C)C=Nc1cc(Cl)c(Oc2ccc(Br)c(C(C)C)c2)cc1C` [compound 590], the log p acidic was found to be 2.93 and the log p neutral was 7.01.

Compound `Cc1cc(Oc2ccc(Br)c(C(C)C)c2)c(Cl)cc1N=CN(C)C(C)C` [compound 591] returned a log p acidic of 3.21 and a log p neutral of 6.92.

`CCN(C)C=Nc1cc(Cl)c(Oc2cc(C(C)(C)C)nn2C)cc1C` [compound 596]: the log p acidic is 1.84, the “log p HCO2H” value turned out to be 1.84 and the log p neutral amounted to 4.41.

The compound `CCCN(C)C=Nc1cc(Cl)c(Oc2cc(C(C)(C)C)nn2C)cc1C` [compound 597] yielded a log p acidic of 1.90 and a log p neutral of 5.09.

`Cc1cc(Oc2cc(C(C)(C)C)nn2C)c(Cl)cc1N=CN1CCCCC1` [compound 600] came in with a log p acidic of 1.90 and a log p neutral of 5.34.

In turn, `CCN(C)C=Nc1cc(Cl)c(Oc2cc(C(C)C)nn2C)cc1C` [compound 602] registered a log p acidic of 1.65 and a log p neutral of 4.04.

In the case of `CCCN(C)C=Nc1cc(Cl)c(Oc2cc(C(C)C)nn2C)cc1C` [compound 603], the log p acidic worked out at 1.78 and the log p neutral was found to be 4.52.

`Cc1cc(Oc2cc(C(C)C)nn2C)c(Cl)cc1N=CN1CCCCC1C` (stereo not shown) [compound 606]: the log p acidic came to 1.79 and the log p neutral is listed as 4.75.

For the compound `CCN(C)C=Nc1cc(Cl)c(Oc2nc(C(C)(C)C)ns2)cc1C` [compound 608], the log p acidic is 2.01, the “log p HCO2H” value turned out to be 2.01 and the log p neutral is reported as 5.31.

Consider `Cc1cc(Oc2nc(C(C)(C)C)ns2)c(Cl)cc1N=CN1CCCCC1` [compound 610], for which the log p acidic turned out to be 2.21 and the “log p HCO2H” value is 2.21.

As for `CCN(C)C=Nc1cc(Cl)c(Oc2nc(C3(Cl)CC3)ns2)cc1C` [compound 612], the log p acidic stood at 1.72.
